Among the data in patent US5643776A, “Insect diagnostic and control compositions” (The Regents of the University of California, priority 1992, dated 1997) are kCAT/KM ratio, Km and Kd values, retold here.

In assay [1] the target is T1, juvenile hormone esterase (JHE) of Heliothis virescens, wild type (Heliothis virescens, UniProt P12992).
T1 sequence (P12992 20-564): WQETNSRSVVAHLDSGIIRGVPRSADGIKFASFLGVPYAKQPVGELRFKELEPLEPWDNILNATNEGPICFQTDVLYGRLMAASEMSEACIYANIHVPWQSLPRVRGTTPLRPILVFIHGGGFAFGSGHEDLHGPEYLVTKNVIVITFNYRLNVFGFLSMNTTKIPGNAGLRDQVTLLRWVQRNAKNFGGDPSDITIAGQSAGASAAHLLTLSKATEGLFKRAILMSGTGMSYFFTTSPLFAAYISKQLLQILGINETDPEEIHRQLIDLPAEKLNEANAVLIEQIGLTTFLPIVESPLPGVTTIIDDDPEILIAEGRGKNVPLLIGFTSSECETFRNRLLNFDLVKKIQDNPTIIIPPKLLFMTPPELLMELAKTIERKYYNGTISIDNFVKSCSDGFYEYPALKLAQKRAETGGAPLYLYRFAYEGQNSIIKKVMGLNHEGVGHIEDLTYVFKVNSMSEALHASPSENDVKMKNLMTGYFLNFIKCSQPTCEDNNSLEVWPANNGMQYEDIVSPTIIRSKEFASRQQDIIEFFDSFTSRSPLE
Description: Kinetics of juvenile hormone hydrolysis by juvenile hormone esterase. Type of assay: biochemical.

For assay [2], the target named is T2, juvenile hormone hemolymph carrier protein of H. virescens (Heliothis virescens, UniProt Q25175).
T2 sequence (Q25175 19-242): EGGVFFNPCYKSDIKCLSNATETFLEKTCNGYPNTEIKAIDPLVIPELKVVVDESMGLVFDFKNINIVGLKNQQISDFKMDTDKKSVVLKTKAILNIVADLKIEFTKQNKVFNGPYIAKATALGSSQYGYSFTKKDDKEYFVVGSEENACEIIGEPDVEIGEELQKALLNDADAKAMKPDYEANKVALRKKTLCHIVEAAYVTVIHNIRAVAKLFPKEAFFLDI
Description: Binding of juvenile hormone by the hemolymph carrier protein. Conditions: juvenile hormone bound by the carrier protein; for H. virescens.

Some results are limits rather than exact numbers.

By Km is commonly meant the concentration of substrate that gives half-maximal velocity. What is called Kd is the constant that tells how readily two partners part at equilibrium. The low end stands for tighter binding, the high end for weaker binding. For juvenile hormone, the kCAT/KM ratio in assay [1] (substrate JH, JHE of H. virescens and of several other species) is given as > 10^8. In addition, in assay [1] (substrate juvenile hormone), the Km was 60 nM. The substance also had a Kd in assay [2] of 610 nM.
